# Data published in patent publication US11173166B2, “Composition and uses thereof” (BH Biotech Pty Ltd, priority 2017, dated 2021).
# Key:
# NLRP3 inflammasome = NLRP3 inflammasome (Homo sapiens, UniProt Q96P20); assay: THP-1 NLRP3 inflammasome assay (LPS priming plus ATP stimulation, IL-1β ELISA), with Chou-Talalay CI analysis; settings: for inhibition of NLRP3 inflammasome activation (IL-1β production), in words: single agent, THP-1 primed with LPS, stimulated with ATP
# Experimental: Absorbance data obtained from the ELISA assays was transformed into relative inhibition using Microsoft Excel. Dose-response curves and statistical analyses were generated using GraphPad Prism software. To generate dose-response curves, first the dose was transformed into Log10, then curves were generated using the non-linear regression option log[inhibitor] vs response-variable slope (four parameter). Statistical comparisons between treatment and control groups were performed using One Way ANOVA with GraphPad Prism statistical software.
# The latest version of CompuSyn software was used to analyse data and generate CI and graphical representations of drug-drug interactions.
# Monocytes were first primed for three hours with 100 nM LPS, then stimulated with ATP.
# [1] = Solubility behaviour in the cell-based assay system / aqueous solution
# Text: The interaction between ashwagandha and turmeric plant extracts was studied. […] To overcome this experimental limitation low doses at approximately the Fa 0.2 range were focused on, and the mean relative inhibition values of the single extract versus the ashwagandha plus turmeric plant extract combination were compared.
# The combination of turmeric and pepper (Piper nigrum) plant extracts was investigated.
# Chain of NLRP3 inflammasome (Q96P20 whole entry): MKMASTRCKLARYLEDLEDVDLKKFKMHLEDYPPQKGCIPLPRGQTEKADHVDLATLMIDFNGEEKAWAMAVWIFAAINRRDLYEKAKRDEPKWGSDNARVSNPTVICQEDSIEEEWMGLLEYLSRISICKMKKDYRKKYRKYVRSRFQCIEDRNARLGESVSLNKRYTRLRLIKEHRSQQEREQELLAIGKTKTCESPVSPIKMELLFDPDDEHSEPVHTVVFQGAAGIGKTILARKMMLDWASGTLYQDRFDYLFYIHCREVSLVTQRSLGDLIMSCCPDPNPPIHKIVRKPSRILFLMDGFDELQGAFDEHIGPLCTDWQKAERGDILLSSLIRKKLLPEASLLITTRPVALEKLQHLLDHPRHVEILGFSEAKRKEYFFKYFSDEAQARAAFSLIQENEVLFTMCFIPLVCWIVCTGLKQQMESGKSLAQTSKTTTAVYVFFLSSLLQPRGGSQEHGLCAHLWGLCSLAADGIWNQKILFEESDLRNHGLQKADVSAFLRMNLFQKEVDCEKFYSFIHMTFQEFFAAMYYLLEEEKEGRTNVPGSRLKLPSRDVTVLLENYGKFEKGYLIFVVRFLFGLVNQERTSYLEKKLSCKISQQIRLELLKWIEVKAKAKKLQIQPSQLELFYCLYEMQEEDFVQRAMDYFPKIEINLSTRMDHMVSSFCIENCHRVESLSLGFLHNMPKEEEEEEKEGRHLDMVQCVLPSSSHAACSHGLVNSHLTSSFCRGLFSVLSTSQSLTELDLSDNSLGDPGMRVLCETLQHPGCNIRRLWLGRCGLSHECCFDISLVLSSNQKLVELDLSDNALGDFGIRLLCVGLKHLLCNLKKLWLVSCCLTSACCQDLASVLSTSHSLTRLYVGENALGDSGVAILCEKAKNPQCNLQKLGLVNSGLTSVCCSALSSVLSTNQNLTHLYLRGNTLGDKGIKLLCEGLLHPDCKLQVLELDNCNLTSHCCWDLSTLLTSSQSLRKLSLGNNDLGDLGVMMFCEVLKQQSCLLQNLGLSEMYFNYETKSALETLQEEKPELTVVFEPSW
"inflammasome inhibition, highest observed (NLRP3 inflammasome; limited because compound came out of solution at higher doses)",solubility behaviour [1],"interaction in drug combination experiments (polynonogram) (NLRP3 inflammasome; combined with withaferin A, curcumin and piperine)",Structure (SMILES),"inhibition of NLRP3 inflammasome activation (IL-1β production), in words (NLRP3 inflammasome)","efficacy relative to vehicle control (ANOVA) (NLRP3 inflammasome; low dose: below Fa 0.4 for pure compounds, approximately Fa 0.2 for extracts)"
≤ 35%,came out of solution at the higher doses,,O=C(/C=C/C=C/c1ccc2c(c1)OCO2)N1CCCCC1 [piperine],,
,,striking antagonism,COc1cc(C2Oc3cc([C@H]4Oc5cc(O)cc(O)c5C(=O)[C@@H]4O)ccc3OC2CO)ccc1O (stereo partly drawn) [silybin],effectively inhibiting inflammation,
,,,CC1=C(CO)C(=O)O[C@@H]([C@@H](C)[C@H]2CC[C@H]3[C@@H]4C[C@H]5O[C@]56[C@@H](O)C=CC(=O)[C@]6(C)[C@H]4CC[C@]23C)C1 [withaferin A],inhibit NLRP3 inflammasome activity,efficacious relative to vehicle control
